Laboratory results published in patent US20100172845A1, “COMPOSITIONS AND METHODS FOR TREATING MYCOBACTERIAL INFECTIONS” (BOARD OF REGENTS OF THE UNIVERSITY OF TEXAS SYSTEM, priority 2007, published 2010).
Entries after “also recorded” stand apart in the source; their conditions may differ.

Experiments:
Erdman strain of MTB = assay: Effect of surfactants on corded state and number of MTB in vitro (microscopy, acid-fast staining); format: cell-based, Mycobacterium tuberculosis; settings: for bactericidal action on MTB: 1% (wt/vol.), OG 24 hr, DDM 2 hr
[1] = mouse, in vivo
MTB = assay: Growth of MTB in the presence of surfactant; format: cell-based, Mycobacterium tuberculosis; settings: 0.3% surfactant
[2] = 1% (wt/vol.) surfactant, 2 hr exposure
[3] = 1% (wt/vol.) surfactant, 30 min exposure

## CCCCCCCCCCCCO[C@@H]1O[C@H](CO)[C@@H](O[C@H]2O[C@H](CO)[C@@H](O)[C@H](O)[C@H]2O)[C@H](O)[C@H]1O [DDM, n-dodecyl-β-D-maltoside]
Erdman strain of MTB; [2]
  elimination of bacteria: elimination of most of the bacteria
  loss / reduction of cording of MTB: reduce cording to a similar extent of OG after 24 hr exposure; also recorded: rapid loss of cording
Erdman strain of MTB
  bactericidal action on MTB: bactericidal
[1]
  body weight versus control animals: no difference in the body weight
  histological examination of spleens and livers: did not reveal any visible changes
  histopathological differences of lung, liver and spleen tissues versus control: no identifiable histopathological differences
  leukocyte count and cytologic composition of the lavage fluid: no change were found
  tolerability by the lungs: well tolerated by the lungs

## CCCCCCCCCCCCCCCC(=O)OC[C@H](COP(=O)([O-])OCC[N+](C)(C)C)OC(=O)CCCCCCCCCCCCCCC [DPPC, 1,2-dipalmitoyl-sn-3-glycerophosphoryl choline, reference compound]
Erdman strain of MTB; 1% surfactant, over the time period of the study
  reversal of cording of corded MTB preparation: did not reverse cording

## CCCCCCCCO[C@@H]1O[C@H](CO)[C@@H](O)[C@H](O)[C@H]1O [OG, n-octyl-β-D-glucoside]
Erdman strain of MTB; [3]
  number of bacteria in the background (higher power view): significant loss in the number of bacteria in the background
  reversal of aggregation / number of cords of MTB: major reduction in the number of the cords; also recorded: rapidly reversed aggregation of MTB
Erdman strain of MTB; 1% (wt/vol.) surfactant, 24 hr incubation
  decrease in the corded state of MTB: more pronounced
Erdman strain of MTB; 1% (wt/vol.) surfactant, within 24 hours of treatment
  bacteria eliminated (50× image): over 90%
Erdman strain of MTB
  bactericidal action on MTB: acts as a bacteriocide; also recorded: bactericidal
MTB
  growth of MTB and mycolic acid coat: will grow in the presence of 0.3% OG but are not surrounded by their extensive coat of mycolic acid
[1]
  body weight versus control animals: no difference in the body weight
  histological examination of spleens and livers: did not reveal any visible changes
  histopathological differences of lung, liver and spleen tissues versus control: no identifiable histopathological differences
  leukocyte count and cytologic composition of the lavage fluid: no change were found
  tolerability by the lungs: well tolerated by the lungs
